Reference: paper PMC2904454 (Cancer Chemotherapy and Pharmacology, 2009)
Read-outs that look alike come from different tables or passages of the source.

Columns and labels:
NSCLC = conditions: ESCAPE, with carboplatin and paclitaxel in NSCLC; cited from earlier work
[1] = Plasma pharmacokinetics of sunitinib, SU12662 and total drug; type: in vivo, human; conditions: for Mean trough plasma concentration: day 14 of cycle 1, Schedule 2/1
[2] = system: patients with advanced solid tumors; type: in vivo, human; conditions: for MTD of docetaxel in combination with sunitinib: IV q21d; for MTD of sunitinib in combination with docetaxel: with docetaxel q21d
breast cancer and NSCLC = conditions: cited from earlier work
[3] = Plasma pharmacokinetics of docetaxel; type: in vivo, human; conditions: for half-life / AUC(0-inf) / Cmax / Tmax: plasma, intravenous; for Tmax: median (range)
[4] = system: patients with advanced solid tumors; assay: Safety: adverse events graded by NCI CTCAE v3.0, ECG/MUGA, patient disposition; type: in vivo, human; conditions: with docetaxel
[5] = Schedule 2/1 dose level 3b (MTD), n = 10
[6] = Schedule 2/1 dose level 3b (MTD), n = 10, docetaxel + sunitinib (day 1 of cycle 2)
[7] = Schedule 2/1 dose level 3b (MTD), n = 10, sunitinib alone (day 3 of cycle 1)
[8] = Schedule 4/2 dose level 0, n = 3
[9] = Schedule 4/2 dose level 0, n = 3, docetaxel + sunitinib (day 22)
[10] = Schedule 4/2 dose level 0, n = 3, sunitinib alone (day 18)
[11] = Schedule 4/2 dose level 1, n = 5
[12] = Schedule 4/2 dose level 1, n = 5, docetaxel + sunitinib (day 22)
[13] = Schedule 4/2 dose level 1, n = 5, sunitinib alone (day 18)
[14] = Schedule 2/1 dose level 3b, n = 8
[15] = Schedule 2/1 MTD only, dose level 3b (n = 23)
[16] = Schedule 2/1 dose levels 0–3b, all patients (N = 40)
[17] = Schedule 4/2 dose levels 0–1 (N = 10)

## CNC(=O)c1cc(Oc2ccc(NC(=O)Nc3ccc(Cl)c(C(F)(F)F)c3)cc2)ccn1 [sorafenib]
NSCLC
  Febrile neutropenia rate: 5%
  Grade 3/4 thrombocytopenia rate: 14%

## CCNCCNC(=O)c1c(C)[nH]c(/C=C2\C(=O)Nc3ccc(F)cc32)c1C [SU12662]
[1]; [5]
  AUC0–24 geometric mean ratio (combination/drug alone): 0.99
  C max geometric mean ratio (combination/drug alone): 1.16
[1]; [6]
  AUC0–24, mean (SD): 62.7 (32.4) ng*h/mL
  C max, mean (SD): 4.1 (1.9) ng/mL
  T max, median (range): 7.0 (2.0, 24.0) h
[1]; [7]
  C max, mean (SD): 3.4 (1.3) ng/mL
  T max, median (range): 5.0 (4.0, 24.0) h
[1]; Schedule 2/1 dose level 3b (MTD: sunitinib 37.5 mg + docetaxel 75 mg/m^2 q21d), n = 10, sunitinib alone (day 3 of cycle 1)
  AUC0–24, mean (SD): 58.0 (22.3) ng*h/mL
[1]; Schedule 4/2 dose level 0 (sunitinib 25 mg, docetaxel 60 mg/m^2), n = 3, sunitinib alone (day 18)
  AUC0–24, mean (SD): 294.0 (195.0) ng*h/mL
[1]; [8]
  AUC0–24 geometric mean ratio (combination/drug alone): 1.10
  C max geometric mean ratio (combination/drug alone): 1.14
[1]; [9]
  AUC0–24, mean (SD): 299.9 (132.7) ng*h/mL
  C max, mean (SD): 14.4 (7.2) ng/mL
  T max, median (range): 4.0 (2.0, 4.0) h
[1]; [10]
  C max, mean (SD): 13.3 (8.3) ng/mL
  T max, median (range): 4.0 (4.0, 12.0) h
[1]; Schedule 4/2 dose level 1 (sunitinib 37.5 mg, docetaxel 60 mg/m^2), n = 5, sunitinib alone (day 18)
  AUC0–24, mean (SD): 341.9 (110.9) ng*h/mL
[1]; [11]
  AUC0–24 geometric mean ratio (combination/drug alone): 1.06
  C max geometric mean ratio (combination/drug alone): 1.05
[1]; [12]
  AUC0–24, mean (SD): 366.8 (137.5) ng*h/mL
  C max, mean (SD): 17.7 (7.2) ng/mL
  T max, median (range): 4.0 (1.0, 12.0) h
[1]; [13]
  C max, mean (SD): 16.3 (4.6) ng/mL
  T max, median (range): 6.0 (2.0, 12.0) h
[1]
  Mean trough plasma concentration: 16.4 ng/mL

## CC(=O)O[C@@]12CO[C@@H]1C[C@H](O)[C@@]1(C)C(=O)[C@H](O)C3=C(C)[C@@H](OC(=O)[C@H](O)[C@@H](NC(=O)OC(C)(C)C)c4ccccc4)C[C@@](O)([C@@H](OC(=O)c4ccccc4)[C@H]21)C3(C)C [docetaxel, Docetaxel]
[2]; with sunitinib on Schedule 2/1
  MTD of docetaxel in combination with sunitinib: 75 mg/m^2
[2]; with sunitinib on Schedule 4/2
  MTD of docetaxel in combination with sunitinib: 60 mg/m^2
Breast cancer and NSCLC; docetaxel monotherapy, phase III trials of breast cancer and NSCLC
  Grade 3/4 neutropenia, patients: 54–84%
Breast cancer and NSCLC; single-agent docetaxel
  Use of granulocytic growth factor support: 17.9%
[3]; [14]
  AUCinf geometric mean ratio (combination/drug alone): 1.12
  AUClast geometric mean ratio (combination/drug alone): 1.16
  C max geometric mean ratio (combination/drug alone): 1.24
[3]; [11]
  AUCinf geometric mean ratio (combination/drug alone): 1.43
  AUClast geometric mean ratio (combination/drug alone): 1.47
  C max geometric mean ratio (combination/drug alone): 1.46
[3]; human, in vivo
  AUClast, mean (SD): 2,712.5 (731.9) ng*h/mL
[3]; human, in vivo, AUClast, mean (SD)
  AUC(0-t): 2290 ng·h/mL
[3]; human, 60 mg/m^2
  half-life: 19.6 h
[3]; human, 60 mg/m^2, AUCinf, mean (SD), Schedule 4/2 dose level 1, n = 5, drug alone (day 1 of cycle 1)
  AUC(0-inf): 2550 ng·h/mL
[3]; human, 75 mg/m^2
  half-life: 15.7 h
[3]; human, 75 mg/m^2, AUCinf, mean (SD), Schedule 2/1 dose level 3b, n = 8, drug alone (day 1 of cycle 1)
  AUC(0-inf): 2960 ng·h/mL
[3]; human, 75 mg/m^2, C max, mean (SD), Schedule 2/1 dose level 3b, n = 8, drug alone (day 1 of cycle 1)
  Cmax: 2580 ng/mL
[3]; human, 75 mg/m^2, T max, Schedule 2/1 dose level 3b, n = 8, drug alone (day 1 of cycle 1)
  Tmax: 0.6 h
[3]; human, AUCinf, mean (SD), Schedule 4/2 dose level 1, n = 5, docetaxel + sunitinib (day 22 of cycle 1)
  AUC(0-inf): 3690 ng·h/mL
[3]; human, C max, mean (SD), Schedule 2/1 dose level 3b, n = 8, docetaxel + sunitinib (day 1 of cycle 2)
  Cmax: 3180 ng/mL
[3]; human, C max, mean (SD), Schedule 4/2 dose level 1, n = 5, docetaxel + sunitinib (day 22 of cycle 1)
  Cmax: 3100 ng/mL
[3]; human, T max, Schedule 2/1 dose level 3b, n = 8, docetaxel + sunitinib (day 1 of cycle 2)
  Tmax: 0.8 h

## CCN(CC)CCNC(=O)c1c(C)[nH]c(/C=C2\C(=O)Nc3ccc(F)cc32)c1C [sunitinib, Sunitinib malate]
[4]; [15]
  Dose reduction for sunitinib: 4 (17) n (%)
  Treatment interruption for sunitinib, adverse event: 9 (39) n (%)
[4]; [16]
  Dose reduction for sunitinib: 5 (13) n (%)
  Treatment interruption for sunitinib, adverse event: 11 (28) n (%)
[4]; [17]
  Dose reduction for sunitinib: 1 (10) n (%)
  Treatment interruption for sunitinib, adverse event: 3 (30) n (%)
[2]; Schedule 2/1, oral
  MTD of sunitinib in combination with docetaxel: 37.5 mg/day
[2]; Schedule 4/2, oral
  MTD of sunitinib in combination with docetaxel: 25 mg/day
[1]
  Mean trough plasma concentration: 43.8 ng/mL
[1]; human, in vivo
  AUC(0-t): 297 ng·h/mL
[1]; human, in vivo, AUC0–24, mean (SD)
  AUC(0-t): 1170 ng·h/mL
[1]; human, plasma, oral, 25 mg, AUC0–24, mean (SD), Schedule 4/2 dose level 0 (sunitinib 25 mg, docetaxel 60 mg/m^2), n = 3, sunitinib alone (day 18)
  AUC(0-t): 721 ng·h/mL
[1]; human, plasma, oral, 37.5 mg
  Tmax: 8 h
[1]; human, plasma, oral, AUC0–24, mean (SD), Schedule 4/2 dose level 0, n = 3, docetaxel + sunitinib (day 22)
  AUC(0-t): 548 ng·h/mL
[1]; human, plasma, oral, AUC0–24, mean (SD), Schedule 4/2 dose level 1, n = 5, docetaxel + sunitinib (day 22)
  AUC(0-t): 1020 ng·h/mL
